24 molecules from patent US20250179061A1 (SIRONAX LTD., priority 2022, published 2025) can be followed below.

The subject of this experiment is HT-29 cells. Nature of the experiment: HT-29 necroptosis cell viability assay (TNF-α/SMAC mimetic/zVAD-FMK, CellTiter-Glo). The class given is cell-based. As to conditions: Homo sapiens, read-out: Activity. The method, boiled down:
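Necroptosis was triggered by TNF-α (10 ng/ml), SMAC mimetic (6 μM) and zVAD-FMK (10 μM) in serum-free medium during 20 h compound exposure (10 concentrations, threefold steps) of HT-29 cells. IC50 from duplicate dose-responses uses CellTiter-Glo ATP luminescence as viability read-out.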
For orientation: In ATP-based viability assays light output follows the ATP content of the culture.

The mark [1] stands for this setting: HT-29, HT-29 necroptosis cell viability assay, class symbols for IC50.
[2] abbreviates: HT-29 cells stimulated with TNF-α (10 ng/ml), SMAC mimetic (6 μM) and zVAD-FMK (10 μM), 20 hours, CellTiter-Glo ATP luminescence, geometric mean IC50 from 10 points.
[3] abbreviates: HT-29, HT-29 necroptosis cell viability, IC50 class symbols.

SMILES strings stand for the structures. Like-named read-outs stand apart in the source and are kept apart here.

On to `Cc1nc(CO)sc1Oc1ccc(-n2ncn(Cc3c(F)cccc3F)c2=O)cc1F` [Example 156, 4-(2,6-difluorobenzyl)-2-(3-fluoro-4-((2-(hydroxymethyl)-4-methylthiazol-5-yl)oxy)phenyl)-2,4-dihydro-3H-1,2,4-triazol-3-one], for which the IC50 under setting [1] was under 100 nM.
Consider `N#Cc1ccn(Cc2ccc(-n3ncn(Cc4c(F)cccc4F)c3=O)cc2)n1` [Example 209, 1-(4-(4-(2,6-difluorobenzyl)-5-oxo-4,5-dihydro-1H-1,2,4-triazol-1-yl)benzyl)-1H-pyrazole-3-carbonitrile], for which the IC50 under setting [1] is under 100 nM.
As for `Cc1nc(Oc2ccc(-n3ncn(Cc4c(F)cccc4F)c3=O)cc2)sc1C` [Example 78, 4-(2,6-difluorobenzyl)-2-(4-((4,5-dimethylthiazol-2-yl)oxy)phenyl)-2,4-dihydro-3H-1,2,4-triazol-3-one], the IC50 under setting [2] lay within 100 to 1000 nM.
`C[C@H]1C[C@@H](N)CN1c1cc(Oc2ccc(-n3ncn(Cc4c(F)cccc4F)c3=O)cc2F)c(Cl)cn1` [Example 413, 2-(4-((2-((2S,4R)-4-amino-2-methylpyrrolidin-1-yl)-5-chloropyridin-4-yl)oxy)-3-fluorophenyl)-4-(2,6-difluorobenzyl)-2,4-dihydro-3H-1,2,4-triazol-3-one]: the IC50 under setting [3] was under 100 nM.
`Cc1ncn(Cc2ccc(-n3ncn(Cc4c(F)cccc4F)c3=O)cc2)c1I` [Example 540, 4-(2,6-difluorobenzyl)-2-(4-((5-iodo-4-methyl-1H-imidazol-1-yl)methyl)phenyl)-2,4-dihydro-3H-1,2,4-triazol-3-one]: the IC50 under setting [1] is under 100 nM.
As to `COC1(C)CN(c2cc(Oc3ccc(-n4ncn(Cc5c(F)cccc5F)c4=O)cc3Cl)c(F)cn2)C1` [Example 496, 2-(3-chloro-4-((5-fluoro-2-(3-methoxy-3-methylazetidin-1-yl)pyridin-4-yl)oxy)phenyl)-4-(2,6-difluorobenzyl)-2,4-dihydro-3H-1,2,4-triazol-3-one], the IC50 under setting [1] is under 100 nM.
For `Cc1cnc(Cl)cc1Oc1ccc(-n2ncn(Cc3c(F)cccc3F)c2=O)cc1Cl` [Example 290, 2-(3-chloro-4-((2-chloro-5-methylpyridin-4-yl)oxy)phenyl)-4-(2,6-difluorobenzyl)-2,4-dihydro-3H-1,2,4-triazol-3-one], the IC50 under setting [3] was under 100 nM.
As to `COC(=O)c1ncsc1Nc1ccc(-n2ncn(Cc3c(F)cccc3F)c2=O)cc1` [Example 171, methyl 5-((4-(4-(2,6-difluorobenzyl)-5-oxo-4,5-dihydro-1H-1,2,4-triazol-1-yl)phenyl)amino)thiazole-4-carboxylate], the IC50 under setting [1] is 1000 to 10000 nM.
Consider `Cc1nc(C(C)(C)O)c(Oc2ccc(-n3ncn(Cc4c(F)cccc4F)c3=O)cc2F)s1` [Example 126, 4-(2,6-difluorobenzyl)-2-(3-fluoro-4-((4-(2-hydroxypropan-2-yl)-2-methylthiazol-5-yl)oxy)phenyl)-2,4-dihydro-3H-1,2,4-triazol-3-one], for which the IC50 under setting [1] fell in the range of 100 to 1000 nM.
For the molecule `Cc1nc(C(C)(C)O)sc1Oc1ncc(-n2ncn(Cc3c(F)cccc3F)c2=O)cc1F` [Example 465, 4-(2,6-difluorobenzyl)-2-(5-fluoro-6-((2-(2-hydroxypropan-2-yl)-4-methylthiazol-5-yl)oxy)pyridin-3-yl)-2,4-dihydro-3H-1,2,4-triazol-3-one], the IC50 under setting [3] is under 100 nM.
In the case of `CCCOC1CN(c2cc(Oc3ccc(-n4ncn(Cc5c(F)cccc5F)c4=O)cc3)ccn2)C1` [Example 243, 4-(2,6-difluorobenzyl)-2-(4-((2-(3-propoxyazetidin-1-yl)pyridin-4-yl)oxy)phenyl)-2,4-dihydro-3H-1,2,4-triazol-3-one], the IC50 under setting [3] was under 100 nM.
In the case of `Cc1nc(N2CC[C@@H]2CN)sc1Oc1ccc(-n2ncn(Cc3c(F)cccc3F)c2=O)cc1` [Example 70, (R)-2-(4-((2-(2-(aminomethyl)azetidin-1-yl)-4-methylthiazol-5-yl)oxy)phenyl)-4-(2,6-difluorobenzyl)-2,4-dihydro-3H-1,2,4-triazol-3-one], the IC50 under setting [2] is under 100 nM.
As to `Cc1c(CO)nn(C)c1Oc1ccc(-n2nc3n(c2=O)C(c2ccccc2)CC3)cc1F` (stereo not drawn) [Example 158, 2-(3-fluoro-4-((3-(hydroxymethyl)-1,4-dimethyl-1H-pyrazol-5-yl)oxy)phenyl)-5-phenyl-2,5,6,7-tetrahydro-3H-pyrrolo[2,1-c][1,2,4]triazol-3-one], the IC50 under setting [1] was under 100 nM.
As for `Cc1nc(N2CCOC2=O)sc1Oc1ccc(-n2ncn(Cc3c(F)cccc3F)c2=O)cc1F` [Example 56, 3-(5-(4-(4-(2,6-difluorobenzyl)-5-oxo-4,5-dihydro-1H-1,2,4-triazol-1-yl)-2-fluorophenoxy)-4-methylthiazol-2-yl)oxazolidin-2-one], the IC50 under setting [2] was under 100 nM.
As for `Cc1oc(C(N)=O)nc1Oc1ccc(-n2nc3n(c2=O)[C@H](c2ccccc2)CC3)cc1F` (single isomer, unassigned) [Example 696], the IC50 under setting [2] was under 100 nM.
Take `CC(C)(C)CC(=O)Nc1cc(Oc2ccc(-n3ncn(Cc4c(F)cccc4F)c3=O)cc2)ccn1` [Example 519, N-[4-[4-[4-[(2,6-difluorophenyl)methyl]-5-oxo-1,2,4-triazol-1-yl]phenoxy]-2-pyridyl]-3,3-dimethyl-butanamide]: the IC50 under setting [1] was in the range of 100 to 1000 nM.
For the molecule `NC(=O)c1nnc(Oc2ccc(-n3nc4n(c3=O)[C@H](c3ccccc3)CC4)cc2F)o1` (single isomer, unassigned) [Example 691], the IC50 under setting [2] fell in the range of 1000 to 10000 nM.
Regarding `Cc1ccn(Cc2ccc(-n3ncn(Cc4c(F)cccc4F)c3=O)cc2)n1` [Example 192, 4-(2,6-difluorobenzyl)-2-(4-((3-methyl-1H-pyrazol-1-yl)methyl)phenyl)-2,4-dihydro-3H-1,2,4-triazol-3-one], the IC50 under setting [1] is under 100 nM.
Turning to `O=c1n(Cc2c(F)cccc2F)cnn1-c1ccc(C2=CCOCC2)cc1` [Example 536, 4-(2,6-difluorobenzyl)-2-(4-(3,6-dihydro-2H-pyran-4-yl)phenyl)-2,4-dihydro-3H-1,2,4-triazol-3-one], the IC50 under setting [1] was 1000 to 10000 nM.
Turning to `CCOC(=O)C(F)(F)c1nc(C)c(Oc2ccc(-n3ncn(Cc4c(F)cccc4F)c3=O)cc2F)s1` [Example 118, ethyl 2-(5-(4-(4-(2,6-difluorobenzyl)-5-oxo-4,5-dihydro-1H-1,2,4-triazol-1-yl)-2-fluorophenoxy)-4-methylthiazol-2-yl)-2,2-difluoroacetate], the IC50 under setting [1] lay within 100 to 1000 nM.
Still for that read-out and setting: the same measure for `Cc1nc(C(F)(F)C(=O)O)sc1Oc1ccc(-n2ncn(Cc3c(F)cccc3F)c2=O)cc1F` [Example 170, 2-(5-(4-(4-(2,6-difluorobenzyl)-5-oxo-4,5-dihydro-1H-1,2,4-triazol-1-yl)-2-fluorophenoxy)-4-methylthiazol-2-yl)-2,2-difluoroacetic acid]: 100 to 1000 nM.
Turning to `CC(C)(C)OC(=O)Nc1cc(Oc2ccc(-n3ncn(Cc4ccccc4)c3=O)cc2)ccn1` [Example 311, tert-butyl (4-(4-(4-benzyl-5-oxo-4,5-dihydro-1H-1,2,4-triazol-1-yl)phenoxy)pyridin-2-yl)carbamate], the IC50 under setting [3] lay in the range of 100 to 1000 nM.
As for `Cn1nccc1Cc1ccc(-n2ncn(Cc3c(F)cccc3F)c2=O)cc1` [Example 545, 4-(2,6-difluorobenzyl)-2-(4-((1-methyl-1H-pyrazol-5-yl)methyl)phenyl)-2,4-dihydro-3H-1,2,4-triazol-3-one], the IC50 under setting [1] was under 100 nM.
For `Cc1ncsc1Oc1ccc(-n2nc3n(c2=O)[C@H](c2ccccc2)CC3)cc1F` (single isomer, unassigned) [Example 3], the IC50 under setting [2] was under 100 nM.
